Assay results from patent US20240408159A1, “PHYTOENE-CONTAINING OLEORESIN AND COMPOSITION” (LYCORED LTD., priority 2021, published 2024).

Columns and labels:
[1] = test system: IL-1a; assay: DPM-induced IL-1a production in EpiDerm 3D reconstructed skin model; type: cell-based, human; conditions: 48 hours, FIG. 6
Description: The EpiDerm reconstructed skin system was obtained from the supplier MatTek (catalogue number EPI-200), and the tissue was handled according to the manufacturer's instructions. Briefly, upon delivery, the tissue was removed from its agar medium, washed and then left to recover overnight at 37 C, in a 5% CO2 environment. Then, the tissue was treated with topically-applied DPM (100 μg/ml in PBS, 10 μl/sample) in the presence or absence of the phytoene oleoresin diluted in jojoba wax at concentrations of 0.1, 1 and 2.5%, to a final volume of 30 μl. The following control groups were also set up: naïve tissue (untreated control), vehicle (jojoba wax), DPM-stimulated tissue and N-acetyl cysteine (NAC; positive control). Following addition of the test substances and controls, the reconstructed skin cultures were incubated for a further 48 hours at 37 C, in a 5% CO2 environment. At the end of the treatment period, the medium was collected from the tissue control implants and centrifuged at 250×g for 5 minutes, in order to remove particulate matter. […] IL-1a and IL-6 levels in the thawed medium were determined using commercial ELISA kits (ELISA Max Deluxe Set Human IL-1a catalogue number B265424; ELISA Max Deluxe Set Human IL-6 catalogue number B2852558; both supplied by Enco), according to the manufacturer's instructions.

[2] = test system: IL-8; assay: Inhibition of UVB-induced IL-8 production in cultured HaCaT keratinocytes; type: cell-based, human; conditions: UVB lamp, test at final phytoene concentration 56 ppm, FIG. 5
Description: Spontaneously transformed adult human keratinocytes of the HaCaT line were grown, maintained, plated and treated with control and test substances as described in Example 1, above. The cultured cells were irradiated using a UVB lamp in order to generate an inflammatory response in the cultured cells. The control substances used in this study were: • Vehicle control (“Control” in FIG. 5) • UVB exposure only (“Untreated”) • 4-Aminobenzoic acid (“PABA”; positive control) The test substance used was a dilution of the composition of the present invention (i.e., containing non-GMO, solvent free phytoene and jojoba oil), yielding a final phytoene concentration of 56 ppm. The IL-8 concentration of the culture cell supernatants was measured as described in Example 1, above.

CC(=O)N[C@@H](CS)C(=O)O [NAC, N-acetyl cysteine]
reduction in IL-1a production (positive control) [1]: reduction

Nc1ccc(C(=O)O)cc1 [PABA, 4-Aminobenzoic acid]
reduction in UVB-stimulated IL-8 production [2]: inhibition
